Data: patent publication US20190262294A1, “MODIFIER SYSTEM FOR COMPOSITIONS CONTAINING LAYERED DOUBLE HYDROXIDE” (OXFORD PHARMASCIENCE LIMITED, priority 2016, published 2019)

Assay: solvent system method: total amount of ibuprofen released from the LDH
Assay type: physicochemical
Details: 200 mg dose of ibuprofen; 0.05M HCl 50 mL, 15 min

- TOTAL AMOUNT OF IBUPROFEN RELEASED FROM THE LDH AS DETERMINED USING THE SOLVENT METHOD: 95%
Compound: CC(C)Cc1ccc(C(C)C(=O)O)cc1 (stereo not shown) [Ibuprofen free acid]
